Patent US20100099561A1, “HETEROBICYCLIC ALKYLTHIO-BRIDGED ISOXAZOLINES” (E.I. DU PONT DE NEMOURS AND COMPANY, priority 2008, published 2010)

Tests used:
Assay type in all cases: in vivo
[1] = system: winter wheat (Triticum aestivum); assay: Test C preemergence, winter wheat; settings: 21 days, scale 0 to 100
Text: (§1) Seeds of plant species selected from annual bluegrass (Poa annua), blackgrass (Alopecurus myosuroides), canarygrass (Phalaris minor), gallium, (catchweed bedstraw, Galium aparine), chickweed (Stellaria media), downy bromegrass (Bromus tectorum), field poppy (Papaver rhoeas), field violet (Viola arvensis), green foxtail (Setaria viridis), deadnettle (henbit deadnettle, Lamium amplexicaule), Italian ryegrass (Lolium multiflorum), kochia (Kochia scoparia), lambsquarters (Chenopodium album), oilseed rape (Brassica napus), pigweed (Amaranthus retroflexus), Russian thistle (Salsola kali), spring barley (Hordeum vulgare), spring wheat (Triticum aestivum), wild buckwheat (Polygonum convolvulus), wild mustard (Sinapis arvensis), wild oat (Avena fatua), wild radish (Raphanus raphanistrum), windgrass (Apera spica-venti), winter barley (Hordeum vulgare), and winter wheat (Triticum aestivum) were planted and treated preemergence with test chemicals formulated in a non-phytotoxic solvent mixture which included a surfactant.
(§2) Treated plants and controls were maintained in a controlled growth environment for 21 days after which time all species were compared to controls and visually evaluated. Plant response ratings, summarized in Table C, are based on a scale of 0 to 100 where 0 is no effect and 100 is complete control. A dash (-) response means no test result.

[2] = system: pigweed (Amaranthus retroflexus); assay: Test C preemergence, pigweed; settings: 21 days, scale 0 to 100
Text: as §1, §2

rice (Oryza sativa) = assay: Test B flooded paddy test, rice; settings: Flood, scale 0 to 100
Summary of the method: (§3)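 Compounds were added directly to paddy water over 2-leaf-stage plants in pots flooded 3 cm above soil, water depth maintained. Visual injury scored against controls after 13 to 15 days in greenhouse, 0 (none) to 100 (complete control); dash indicates no result.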

[3] = system: wild mustard (Sinapis arvensis); assay: Test C preemergence, wild mustard; settings: 21 days, scale 0 to 100
Text: as §1, §2

[4] = system: wheat (Triticum aestivum); assay: Test B preemergence, wheat; settings: Preemergence, scale 0 to 100
Text: (§4) Seeds of plant species selected from blackgrass (Alopecurus myosuroides), downy bromegrass (Bromus tectorum), green foxtail (Setaria viridis), Italian ryegrass (Lolium multiflorum), wheat (Triticum aestivum), wild oat (Avena fatua), catchweed bedstraw (Galium aparine), bermudagrass (Cynodon dactylon), Surinam grass (Brachiaria decumbens), cocklebur (Xanthium strumarium), corn (Zea mays), large crabgrass (Digitaria sanguinalis), woolly cupgrass (Eriochloa villosa), giant foxtail (Setaria faberii), goosegrass (Eleusine indica), johnsongrass (Sorghum halepense), kochia (Kochia scoparia), lambsquarters (Chenopodium album), morningglory (Ipomoea coccinea), nightshade (eastern black nightshade, Solanum ptycanthum), yellow nutsedge (Cyperus esculentus), pigweed (Amaranthus retroflexus), ragweed (common ragweed, Ambrosia elatior), soybean (Glycine max), sunflower (common oilseed sunflower, Helianthus annuus), Russian thistle (Salsola kali), and velvetleaf (Abutilon theophrasti) were planted into a blend of loam soil and sand and treated preemergence with test compounds formulated in a non-phytotoxic solvent mixture which included a surfactant. Treated plants and controls were maintained in a greenhouse for 13 to 15 days, after which time all species were compared to controls and visually evaluated. Plant response ratings, summarized in Table B, are based on a scale of 0 to 100 where 0 is no effect and 100 is complete control. A dash (-) response means no test result.

[5] = system: Italian ryegrass (Lolium multiflorum); assay: Test C preemergence, Italian ryegrass; settings: 21 days, scale 0 to 100
Text: as §1, §2

[6] = system: blackgrass (Alopecurus myosuroides); assay: Test C preemergence, blackgrass; settings: 21 days, scale 0 to 100
Text: as §1, §2

[7] = system: ragweed (common ragweed, Ambrosia elatior); assay: Test B preemergence, ragweed; settings: scale 0 to 100
Text: as §4

[8] = system: ducksalad (Heteranthera limosa); assay: Test B flooded paddy test, ducksalad; settings: Flood, scale 0 to 100
Summary of the method: as §3

[9] = system: Italian ryegrass (Lolium multiflorum); assay: Test B preemergence, Italian ryegrass; settings: Preemergence, scale 0 to 100
Text: as §4

[10] = system: pigweed (Amaranthus retroflexus); assay: Test A postemergence, pigweed; settings: 0 to 100 scale (0 no effect, 100 complete control)
Summary of the method: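 In a greenhouse, loam–sand potted species were treated with surfactant-formulated compound, preemergence via directed soil spray and postemergence at 2–10 cm height, one- to two-leaf stage. Response assessed visually at about ten days; 100 means complete control.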

[11] = system: Russian thistle (Salsola kali); assay: Test B preemergence, Russian thistle; settings: scale 0 to 100
Text: as §4

kochia (Kochia scoparia) = assay: Test B preemergence, kochia; settings: scale 0 to 100
Text: as §4

CC1(C)CC(S(=O)(=O)Cc2c(C(F)(F)F)nc3n(c2=O)CCS3)=NO1 [Compound 6]
Plant response rating, Wheat, Winter ([1]; 31 g ai/ha): 0 | Plant response rating, Wheat, Winter ([1]; 62 g ai/ha): 0 | Plant response rating, Wheat, Winter ([1]; 125 g ai/ha): 0 | Plant response rating, Wheat, Winter ([1]; 250 g ai/ha): 20 | Plant response rating, Pigweed ([2]; 31 g ai/ha): 0 | Plant response rating, Pigweed ([2]; 62 g ai/ha): 0 | Plant response rating, Pigweed ([2]; 125 g ai/ha): 0 | Plant response rating, Pigweed ([2]; 250 g ai/ha): 100 | Plant response rating, Rice (rice (Oryza sativa); 62 g ai/ha): 20 | Plant response rating, Rice (rice (Oryza sativa); 250 g ai/ha): 20 | Plant response rating, Mustard, Wild ([3]; 31 g ai/ha): 0 | Plant response rating, Mustard, Wild ([3]; 62 g ai/ha): 0 | Plant response rating, Mustard, Wild ([3]; 125 g ai/ha): 0 | Plant response rating, Mustard, Wild ([3]; 250 g ai/ha): 0 | Plant response rating, Wheat ([4]; 16 g ai/ha): 0 | Plant response rating, Wheat ([4]; 31 g ai/ha): 0 | Plant response rating, Wheat ([4]; 62 g ai/ha): 0 | Plant response rating, Wheat ([4]; 125 g ai/ha): 0 | Plant response rating, Ryegrass, Italian ([5]; 31 g ai/ha): 0 | Plant response rating, Ryegrass, Italian ([5]; 62 g ai/ha): 15 | Plant response rating, Ryegrass, Italian ([5]; 125 g ai/ha): 15 | Plant response rating, Ryegrass, Italian ([5]; 250 g ai/ha): 95 | Plant response rating, Blackgrass ([6]; 125 g ai/ha): 98 | Plant response rating, Ragweed ([7]; 16 g ai/ha): 0 | Plant response rating, Ragweed ([7]; 31 g ai/ha): 0 | Plant response rating, Ragweed ([7]; 62 g ai/ha): 25 | Plant response rating, Ragweed ([7]; 125 g ai/ha): 35 | Plant response rating, Ducksalad ([8]; 62 g ai/ha): 40 | Plant response rating, Ducksalad ([8]; 250 g ai/ha): 65 | Plant response rating, Ryegrass, Italian ([9]; 16 g ai/ha): 0 | Plant response rating, Ryegrass, Italian ([9]; 31 g ai/ha): 15 | Plant response rating, Ryegrass, Italian ([9]; 62 g ai/ha): 80 | Plant response rating, Ryegrass, Italian ([9]; 125 g ai/ha): 95 | Plant response rating, Pigweed ([10]; 125 g ai/ha): 50 | Plant response rating, Pigweed ([10]; 500 g ai/ha): 90

CC1(C)CC(S(=O)(=O)Cc2c(C(F)(F)F)nc3n(c2=O)CCCC3)=NO1 [Compound 8, 3-[[(4,5-dihydro-5,5-dimethyl-3-isoxazolyl)sulfonyl]methyl]-6,7,8,9-tetrahydro-2-(trifluoromethyl)-4H-pyrido[1,2-α]pyrimidin-4-one]
Plant response rating, Wheat, Winter ([1]; 16 g ai/ha): 0 | Plant response rating, Wheat, Winter ([1]; 31 g ai/ha): 0 | Plant response rating, Wheat, Winter ([1]; 62 g ai/ha): 0 | Plant response rating, Wheat, Winter ([1]; 125 g ai/ha): 0 | Plant response rating, Pigweed ([2]; 16 g ai/ha): 0 | Plant response rating, Pigweed ([2]; 31 g ai/ha): 0 | Plant response rating, Pigweed ([2]; 62 g ai/ha): 0 | Plant response rating, Pigweed ([2]; 125 g ai/ha): 0 | Plant response rating, Rice (rice (Oryza sativa); 62 g ai/ha): 0 | Plant response rating, Rice (rice (Oryza sativa); 250 g ai/ha): 0 | Plant response rating, Mustard, Wild ([3]; 16 g ai/ha): 0 | Plant response rating, Mustard, Wild ([3]; 31 g ai/ha): 0 | Plant response rating, Mustard, Wild ([3]; 62 g ai/ha): 30 | Plant response rating, Mustard, Wild ([3]; 125 g ai/ha): 100 | Plant response rating, Wheat ([4]; 16 g ai/ha): 0 | Plant response rating, Wheat ([4]; 31 g ai/ha): 0 | Plant response rating, Wheat ([4]; 62 g ai/ha): 0 | Plant response rating, Wheat ([4]; 125 g ai/ha): 40 | Plant response rating, Ryegrass, Italian ([5]; 16 g ai/ha): 0 | Plant response rating, Ryegrass, Italian ([5]; 31 g ai/ha): 0 | Plant response rating, Ryegrass, Italian ([5]; 62 g ai/ha): 0 | Plant response rating, Ryegrass, Italian ([5]; 125 g ai/ha): 0 | Plant response rating, Blackgrass ([6]; 16 g ai/ha): 0 | Plant response rating, Blackgrass ([6]; 31 g ai/ha): 0 | Plant response rating, Blackgrass ([6]; 62 g ai/ha): 20 | Plant response rating, Blackgrass ([6]; 125 g ai/ha): 35 | Plant response rating, Ragweed ([7]; 16 g ai/ha): 0 | Plant response rating, Ragweed ([7]; 31 g ai/ha): 0 | Plant response rating, Ragweed ([7]; 62 g ai/ha): 25 | Plant response rating, Ragweed ([7]; 125 g ai/ha): 60 | Plant response rating, Russian Thistle ([11]; 16 g ai/ha): 0 | Plant response rating, Russian Thistle ([11]; 31 g ai/ha): 0 | Plant response rating, Russian Thistle ([11]; 62 g ai/ha): 0 | Plant response rating, Russian Thistle ([11]; 125 g ai/ha): 0 | Plant response rating, Ducksalad ([8]; 62 g ai/ha): 0 | Plant response rating, Ducksalad ([8]; 250 g ai/ha): 20 | Plant response rating, Ryegrass, Italian ([9]; 16 g ai/ha): 0 | Plant response rating, Ryegrass, Italian ([9]; 31 g ai/ha): 30 | Plant response rating, Ryegrass, Italian ([9]; 62 g ai/ha): 35 | Plant response rating, Ryegrass, Italian ([9]; 125 g ai/ha): 100 | Plant response rating, Pigweed ([10]; 125 g ai/ha): 10 | Plant response rating, Pigweed ([10]; 500 g ai/ha): 60

CC1(C)CC(S(=O)(=O)Cc2c(C(F)(F)F)nc3n(c2=O)CCO3)=NO1 [Compound 2, 6-[[(4,5-dihydro-5,5-dimethyl-3-isoxazolyl)sulfonyl]methyl]-2,3-dihydro-7-(trifluoromethyl)-5H-oxazolo[3,2-α]pyrimidin-5-one]
Plant response rating, Rice (rice (Oryza sativa); 62 g ai/ha): 0 | Plant response rating, Rice (rice (Oryza sativa); 250 g ai/ha): 0 | Plant response rating, Kochia (kochia (Kochia scoparia); 8 g ai/ha): 0 | Plant response rating, Kochia (kochia (Kochia scoparia); 16 g ai/ha): 0 | Plant response rating, Kochia (kochia (Kochia scoparia); 31 g ai/ha): 75 | Plant response rating, Kochia (kochia (Kochia scoparia); 62 g ai/ha): 70 | Plant response rating, Wheat ([4]; 16 g ai/ha): 0 | Plant response rating, Wheat ([4]; 31 g ai/ha): 0 | Plant response rating, Wheat ([4]; 62 g ai/ha): 0 | Plant response rating, Ragweed ([7]; 31 g ai/ha): 0 | Plant response rating, Ragweed ([7]; 62 g ai/ha): 20 | Plant response rating, Russian Thistle ([11]; 8 g ai/ha): 0 | Plant response rating, Russian Thistle ([11]; 16 g ai/ha): 0 | Plant response rating, Russian Thistle ([11]; 31 g ai/ha): 0 | Plant response rating, Russian Thistle ([11]; 62 g ai/ha): 0 | Plant response rating, Ducksalad ([8]; 62 g ai/ha): 0 | Plant response rating, Ducksalad ([8]; 250 g ai/ha): 0 | Plant response rating, Ryegrass, Italian ([9]; 16 g ai/ha): 0 | Plant response rating, Ryegrass, Italian ([9]; 31 g ai/ha): 0 | Plant response rating, Ryegrass, Italian ([9]; 62 g ai/ha): 0 | Plant response rating, Pigweed ([10]; 125 g ai/ha): 20 | Plant response rating, Pigweed ([10]; 500 g ai/ha): 60
